Test results published in patent US20080255213A1, “THIAZOLIDINONE AMIDES, THIAZOLIDINE CARBOXYLIC ACID AMIDES, AND SERINE AMIDES, INCLUDING POLYAMINE CONJUGATES THEREOF, AS SELECTIVE ANTI-CANCER AGENTS” (University of Tennessee Research Foundation, priority 2007, published 2008).
Read-outs that look alike come from different tables or passages of the source.

What was measured:
fibroblast cell line = experiment: Sulforhodamine B (SRB) cytotoxicity assay, fibroblast control; type: cell-based; settings: 48 h exposure, control for selectivity, value ± standard error, read-out: IC50 ± SEM Fibroblast (converted)
Experimental: (§1) Cytotoxicity of these newly synthesized compounds was examined in two human melanoma cell lines (SK-MEL-188 and WM-164) and in a fibroblast cell line. Activity on fibroblast cells was used as a control to determine the selectivity of these compounds against melanoma. Standard sulforhodamine B (SRB) assay was used. Cells were exposed to a wide range of concentrations for 48 h in round-bottom 96-well plates. Cells were fixed with 10% trichloroacetic acid and washed five times with water. After cells were air-dried overnight and stained with SRB solution, total proteins were measured at 560 nm with a plate reader. IC50 (i.e., concentration which inhibited cell growth by 50% of DMSO-treated controls) values were obtained by nonlinear regression analysis with GraphPad Prism (GraphPad Software, San Diego, Calif.).
(§2) The ability of thiazolidine derivatives to inhibit the growth of two melanoma cancer cell lines and fibroblast cells is summarized in Table 1. […] At this early stage, all compounds were used as a diastereomeric mixture if they contain chiral centers in order to select the most promising compounds for further development.

[1] = system: WM-164 melanoma cell line; experiment: Sulforhodamine B (SRB) cytotoxicity assay, WM-164; type: cell-based; settings: Homo sapiens, WM164, 48 h exposure, diastereomeric mixtures, value ± standard error, read-out: IC50 ± SEM WM-164 (converted)
Experimental: as §1, §2

[2] = system: SK-MEL-188 melanoma cell line; experiment: Sulforhodamine B (SRB) cytotoxicity assay, SK-MEL-188; type: cell-based; settings: Homo sapiens, 48 h exposure, diastereomeric mixtures, value ± standard error, read-out: IC50 ± SEM SK-MEL-188 (converted)
Experimental: as §1, §2

melanoma cells = experiment: SRB cytotoxicity assay, statements not tied to one cell line; type: cell-based, human; settings: for potency/activity in words: melanoma cells and fibroblast cells; for IC50: Homo sapiens; for selectivity in words: melanoma versus fibroblast cells
Experimental: as §1, §2

[3] = summary over the cell lines, read-out: IC50 in the in vitro assay (cell line not given)

SMILES: CCCCCCCCNC(=O)[C@@H]1CSC(c2cc(OC)c(OC)c(OC)c2)N1 (stereo partly drawn) [Compound 301, (4R)-2-(3,4,5-trimethoxyphenyl)-N-octylthiazolidine-4-carboxamide]
- IC50 (fibroblast cell line): 20.8 ± 10.4 µM
- IC50 [1]: 19.6 ± 0.9 µM
- IC50 [2]: 17.1 ± 0.6 µM

SMILES: CCCCCCCCCCNC(=O)[C@@H]1CSC(c2cc(OC)c(OC)c(OC)c2)N1 (stereo partly drawn) [Compound 302, (4R)—N-decyl-2-(3,4,5-trimethoxyphenyl)thiazolidine-4-carboxamide]
- IC50 (fibroblast cell line): 6.7 µM
- IC50 [1]: 2.1 µM
- potency/activity in words (melanoma cells): low potency
- IC50 [2]: 14.5 µM

SMILES: CCCCCCCCCCCCNC(=O)[C@@H]1CSC(c2cc(OC)c(OC)c(OC)c2)N1 (stereo partly drawn) [Compound 303, (4R)—N-dodecyl-2-(3,4,5-trimethoxyphenyl)thiazolidine-4-carboxamide]
- IC50 (fibroblast cell line): 2.4 µM
- IC50 [1]: 2.4 µM
- IC50 [2]: 2.1 µM

SMILES: CCCCCCCCCCCCCCNC(=O)[C@@H]1CSC(c2cc(OC)c(OC)c(OC)c2)N1 (stereo partly drawn) [Compound 304, (4R)-2-(3,4,5-trimethoxyphenyl)-N-tetradecylthiazolidine-4-carboxamide]
- IC50 (fibroblast cell line): 2.6 µM
- IC50 [1]: 1.6 µM
- IC50 [2]: 2 µM

SMILES: CCCCCCCCCCCCCCCCNC(=O)[C@@H]1CSC(c2cc(OC)c(OC)c(OC)c2)N1 (stereo partly drawn) [Compound 305, (4R)—N-hexadecyl-2-(3,4,5-trimethoxyphenyl)thiazolidine-4-carboxamide]
- IC50 (fibroblast cell line): 2.4 µM
- IC50 [1]: 0.7 µM
- IC50 [2]: 1.8 µM

SMILES: CCCCCCCCCCNC(=O)[C@@H]1CSC(c2ccc(OC)c(OC)c2)N1 (stereo partly drawn) [Compound 306, (4R)—N-decyl-2-(3,4-dimethoxyphenyl)thiazolidine-4-carboxamide]
- IC50 (fibroblast cell line): 6.3 µM
- IC50 [1]: 6.1 µM
- potency/activity in words (melanoma cells): low potency
- IC50 [2]: 11.9 µM

SMILES: CCCCCCCCCCCCNC(=O)[C@@H]1CSC(c2ccc(OC)c(OC)c2)N1 (stereo partly drawn) [Compound 307, (4R)—N-dodecyl-2-(3,4-dimethoxyphenyl)thiazolidine-4-carboxamide]
- IC50 (fibroblast cell line): 4.5 µM
- IC50 [1]: 1.6 µM
- IC50 [2]: 2.9 µM

SMILES: CCCCCCCCCCCCCCNC(=O)[C@@H]1CSC(c2ccc(OC)c(OC)c2)N1 (stereo partly drawn) [Compound 308, (4R)-2-(3,4-dimethoxyphenyl)-N-tetradecylthiazolidine-4-carboxamide]
- IC50 (fibroblast cell line): 2.8 µM
- IC50 [1]: 0.8 µM
- IC50 [2]: 1.5 µM

SMILES: CCCCCCCCCCCCCCCCNC(=O)[C@@H]1CSC(c2ccc(OC)c(OC)c2)N1 (stereo partly drawn) [Compound 309, (4R)—N-hexadecyl-2-(3,4-dimethoxyphenyl)thiazolidine-4-carboxamide]
- IC50 (fibroblast cell line): 2.1 µM
- IC50 [1]: 0.5 µM
- IC50 [2]: 1.5 µM

SMILES: CCCCCCCCCCNC(=O)[C@@H]1CSC(c2ccc3c(c2)OCO3)N1 (stereo partly drawn) [Compound 310, (4R)-2-(benzo[d][1,3]dioxol-5-yl)-N-decylthiazolidine-4-carboxamide]
- IC50 (fibroblast cell line): 8.2 µM
- IC50 [1]: 4.5 µM
- potency/activity in words (melanoma cells): low potency
- IC50 [2]: 6.6 µM

SMILES: CCCCCCCCCCCCNC(=O)[C@@H]1CSC(c2ccc3c(c2)OCO3)N1 (stereo partly drawn) [Compound 311, (4R)-2-(benzo[d][1,3]dioxol-5-yl)-N-dodecylthiazolidine-4-carboxamide]
- IC50 (fibroblast cell line): 5.2 µM
- IC50 [1]: 2.5 µM
- IC50 [2]: 3.5 µM

SMILES: CCCCCCCCCCCCCCNC(=O)[C@@H]1CSC(c2ccc3c(c2)OCO3)N1 (stereo partly drawn) [Compound 312, (4R)-2-(benzo[d][1,3]dioxol-5-yl)-N-tetradecylthiazolidine-4-carboxamide]
- IC50 (fibroblast cell line): 4.2 µM
- IC50 [1]: 1 µM
- IC50 [2]: 1.6 µM

SMILES: CCCCCCCCCCCCCCCCNC(=O)[C@@H]1CSC(c2ccc3c(c2)OCO3)N1 (stereo partly drawn) [Compound 313, (4R)-2-(benzo[d][1,3]dioxol-5-yl)-N-hexadecylthiazolidine-4-carboxamide]
- IC50 (fibroblast cell line): 5.7 µM
- IC50 [1]: 1.8 µM
- IC50 [2]: 1.6 µM

SMILES: CCCCCCCCCCCCNC(=O)[C@@H]1CSC(c2ccc(NC(C)=O)cc2)N1 (stereo partly drawn) [Compound 314, (4R)-2-(4-acetamidophenyl)-N-dodecylthiazolidine-4-carboxamide]
- IC50 (fibroblast cell line): 3.5 µM
- IC50 [1]: 1.2 µM
- IC50 [2]: 2.4 µM

SMILES: CCCCCCCCCCCCCCNC(=O)[C@@H]1CSC(c2ccc(NC(C)=O)cc2)N1 (stereo partly drawn) [Compound 315, (4R)-2-(4-acetamidophenyl)-N-tetradecylthiazolidine-4-carboxamide]
- IC50 (fibroblast cell line): 3.6 µM
- IC50 [1]: 0.6 µM
- IC50 [2]: 2.3 µM

SMILES: CCCCCCCCCCCCCCCNC(=O)[C@@H]1CSC(c2ccc(NC(C)=O)cc2)N1 (stereo partly drawn) [Compound 316, (4R)-2-(4-acetamidophenyl)-N-pentadecylthiazolidine-4-carboxamide]
- IC50 (fibroblast cell line): 14.3 µM
- IC50 [1]: 1 µM
- IC50 [2]: 1.6 µM

SMILES: CCCCCCCCCCCCCCCCNC(=O)[C@@H]1CSC(c2ccc(NC(C)=O)cc2)N1 (stereo partly drawn) [Compound 317, (4R)-2-(4-acetamidophenyl)-N-hexadecylthiazolidine-4-carboxamide]
- IC50 (fibroblast cell line): 19.1 µM
- IC50 [1]: 0.6 µM
- IC50 (melanoma cells; melanoma cells, lowest value stated in text, read-out: IC50 for melanoma cells (as low as)): 0.6 µM
- IC50 [2]: 2.1 µM

SMILES: CCCCCCCCCCCCCCCCCNC(=O)[C@@H]1CSC(c2ccc(NC(C)=O)cc2)N1 (stereo partly drawn) [Compound 318, (4R)-2-(4-acetamidophenyl)-N-heptadecylthiazolidine-4-carboxamide]
- IC50 (fibroblast cell line): 35.8 µM
- IC50 [1]: 2.4 µM
- IC50 [2]: 8.5 µM

SMILES: CCCCCCCCC/C=C/CCCCCCCNC(=O)[C@@H]1CSC(c2ccc(NC(C)=O)cc2)N1 (stereo partly drawn) [Compound 320E, (4R)-2-(4-acetamidophenyl)-N-((E)-octadec-8-enyl)thiazolidine-4-carboxamide]
- IC50 (fibroblast cell line): 18 µM
- IC50 [1]: 1.4 µM
- potency/activity in words (melanoma cells): restored potency dramatically
- IC50 [2]: 3.3 µM

SMILES: CCCCCCCCC/C=C\CCCCCCCNC(=O)[C@@H]1CSC(c2ccc(NC(C)=O)cc2)N1 (stereo partly drawn) [Compound 320Z, (4R)-2-(4-acetamidophenyl)-N-((Z)-octadec-8-enyl)thiazolidine-4-carboxamide]
- IC50 (fibroblast cell line): 10.6 µM
- IC50 [1]: 1 µM
- potency/activity in words (melanoma cells): restored potency dramatically
- IC50 [2]: 1.4 µM

SMILES: CCCCCCCCCCCCCCNC(=O)[C@@H]1CSC(c2ccccc2)N1 (stereo partly drawn) [Compound 321, (4R)-2-phenyl-N-tetradecylthiazolidine-4-carboxamide]
- IC50 (fibroblast cell line): 2.8 µM
- IC50 [1]: 0.6 µM
- selectivity in words (melanoma cells): loss of selectivity
- IC50 [2]: 1.9 µM

SMILES: CCCCCCCCCCCCCCCCNC(=O)[C@@H]1CSC(c2ccccc2)N1 (stereo partly drawn) [Compound 322, (4R)—N-hexadecyl-2-phenylthiazolidine-4-carboxamide]
- IC50 (fibroblast cell line): 2.2 µM
- IC50 [1]: 0.7 µM
- selectivity in words (melanoma cells): loss of selectivity
- IC50 [2]: 1.9 µM

SMILES: CON(C)C(=O)[C@@H]1CSC(c2ccccc2)N1 (stereo partly drawn) [Compound 323, (4R)—N-methoxy-N-methyl-2-phenylthiazolidine-4-carboxamide]
- IC50 (fibroblast cell line): > 100 µM
- IC50 [1]: > 100 µM
- potency/activity in words (melanoma cells): completely abolished potency
- IC50 [2]: > 100 µM

SMILES: CCCCCCCCCCCCCCNC(=O)[C@H]1CSC(c2cc(OC)c(OC)c(OC)c2)N1 (stereo partly drawn) [Compound 324, (4S)-2-(3,4,5-trimethoxyphenyl)-N-tetradecylthiazolidine-4-carboxamide]
- IC50 (fibroblast cell line): 4.1 ± 0.7 µM
- IC50 [1]: 1.1 ± 0.1 µM
- IC50 [2]: 2.6 ± 0.2 µM

SMILES: CCCCCCCCCCCCCCCCNC(=O)[C@H]1CSC(c2ccc(NC(C)=O)cc2)N1 (stereo partly drawn) [Compound 325, (4S)-2-(4-acetamidophenyl)-N-hexadecylthiazolidine-4-carboxamide]
- IC50 (fibroblast cell line): 22.6 µM
- IC50 [1]: 1.4 µM
- IC50 [2]: 3.2 µM

SMILES: CCCCCCCCCCCCNC(=O)[C@@H]1CSC(c2ccc(N)cc2)N1 (stereo partly drawn) [Compound 326, (4R)-2-(4-aminophenyl)-N-dodecylthiazolidine-4-carboxamide]
- IC50 (fibroblast cell line): 4.1 µM
- IC50 [1]: 1.4 µM
- IC50 [2]: 2.2 µM

SMILES: CCCCCCCCCCCCCCCCNC(=O)[C@@H]1CSC(c2ccc(N)cc2)N1 (stereo partly drawn) [Compound 327, (4R)-2-(4-aminophenyl)-N-hexadecylthiazolidine-4-carboxamide]
- IC50 (fibroblast cell line): 7.4 µM
- IC50 [1]: 1.4 µM
- IC50 [2]: 2.3 µM

SMILES: CCCCCCCCCCCCCCNC(=O)[C@@H]1CSC(c2ccccc2)=N1 [Compound 328, (R)-4,5-dihydro-2-phenyl-N-tetradecylthiazole-4-carboxamide]
- IC50 (fibroblast cell line): > 50 µM
- IC50 [1]: > 50 µM
- IC50 (melanoma cells; [3]): > 20 µM
- IC50 [2]: 42.1 ± 5 µM

SMILES: CCCCCCCCCCCCCCNC(=O)[C@@H]1CSC(c2ccc(OC)c(OC)c2)=N1 [Compound 329, (R)-4,5-dihydro-2-(3,4-dimethoxyphenyl)-N-tetradecylthiazole-4-carboxamide]
- IC50 (fibroblast cell line): > 50 µM
- IC50 [1]: 42.9 µM
- IC50 (melanoma cells; [3]): > 20 µM
- IC50 [2]: 19.1 µM

SMILES: CCCCCCCCCCCCCCCCNC(=O)[C@@H]1CSC(c2ccccc2NC(C)=O)N1C (stereo partly drawn) [Compound 330, (4R)-2-(2-acetamidophenyl)-N-hexadecyl-3-methylthiazolidine-4-carboxamide]
- IC50 (fibroblast cell line): > 100 µM
- IC50 [1]: > 100 µM
- IC50 (melanoma cells; [3]): > 20 µM
- IC50 [2]: 29.1 ± 1 µM

SMILES: CN(C)/N=N/c1[nH]cnc1C(N)=O [DTIC, dacarbazine, reference compound]
- IC50 [1]: > 100 µM
- IC50 (melanoma cells; [3]): > 100 µM
- IC50 [2]: > 100 µM
